In ChEMBL document CHEMBL1201862, “PubChem BioAssay data set” (2004):
The source made the active and inactive calls.

Tests used:
[1] = target: Heat shock protein HSP 90-alpha (Homo sapiens, UniProt P07900); experiment: Luminescence-based dose response biochemical high throughput screening assay for inhibitors of the Heat Shock Protein 90 (HSP90). [Related pubchem assays: 1831 (Summary AID.), 1846 (Confirmation screen.), 1789 (Primary screen.)]
[2] = target: T1, Microphthalmia-associated transcription factor (Homo sapiens, UniProt O75030); experiment: reducers of TRPM1 reporter luminescence, concentration series – cell-based, SK-MEL-5, cherry-picked, set 3, MITF inhibitor project, dose response (AID 493073); assay type: functional;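 further: SK-MEL-5 melanoma cells with luciferase driven by the MITF target TRPM1 promoter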
T1 sequence (O75030 whole entry): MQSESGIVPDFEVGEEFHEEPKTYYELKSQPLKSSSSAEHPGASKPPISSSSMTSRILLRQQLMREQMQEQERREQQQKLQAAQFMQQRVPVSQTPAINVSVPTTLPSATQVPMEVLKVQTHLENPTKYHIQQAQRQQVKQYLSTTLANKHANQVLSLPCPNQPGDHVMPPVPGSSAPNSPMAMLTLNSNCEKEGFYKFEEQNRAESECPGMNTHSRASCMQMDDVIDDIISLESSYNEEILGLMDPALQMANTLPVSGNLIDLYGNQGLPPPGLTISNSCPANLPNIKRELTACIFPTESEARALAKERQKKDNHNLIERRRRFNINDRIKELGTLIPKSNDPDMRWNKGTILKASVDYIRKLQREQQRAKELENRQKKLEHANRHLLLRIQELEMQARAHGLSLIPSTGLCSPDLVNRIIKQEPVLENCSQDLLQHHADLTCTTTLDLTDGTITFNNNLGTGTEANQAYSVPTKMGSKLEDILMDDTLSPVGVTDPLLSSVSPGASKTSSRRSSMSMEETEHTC

[3] = target: T2, Replicative DNA helicase DnaB (Mycobacterium tuberculosis, UniProt P9WMR3); experiment: DnaB intein splicing inhibitors, dose response, biochemical, cell-free fluorescence (AID 449749); assay type: functional
T2 sequence (P9WMR3 whole entry): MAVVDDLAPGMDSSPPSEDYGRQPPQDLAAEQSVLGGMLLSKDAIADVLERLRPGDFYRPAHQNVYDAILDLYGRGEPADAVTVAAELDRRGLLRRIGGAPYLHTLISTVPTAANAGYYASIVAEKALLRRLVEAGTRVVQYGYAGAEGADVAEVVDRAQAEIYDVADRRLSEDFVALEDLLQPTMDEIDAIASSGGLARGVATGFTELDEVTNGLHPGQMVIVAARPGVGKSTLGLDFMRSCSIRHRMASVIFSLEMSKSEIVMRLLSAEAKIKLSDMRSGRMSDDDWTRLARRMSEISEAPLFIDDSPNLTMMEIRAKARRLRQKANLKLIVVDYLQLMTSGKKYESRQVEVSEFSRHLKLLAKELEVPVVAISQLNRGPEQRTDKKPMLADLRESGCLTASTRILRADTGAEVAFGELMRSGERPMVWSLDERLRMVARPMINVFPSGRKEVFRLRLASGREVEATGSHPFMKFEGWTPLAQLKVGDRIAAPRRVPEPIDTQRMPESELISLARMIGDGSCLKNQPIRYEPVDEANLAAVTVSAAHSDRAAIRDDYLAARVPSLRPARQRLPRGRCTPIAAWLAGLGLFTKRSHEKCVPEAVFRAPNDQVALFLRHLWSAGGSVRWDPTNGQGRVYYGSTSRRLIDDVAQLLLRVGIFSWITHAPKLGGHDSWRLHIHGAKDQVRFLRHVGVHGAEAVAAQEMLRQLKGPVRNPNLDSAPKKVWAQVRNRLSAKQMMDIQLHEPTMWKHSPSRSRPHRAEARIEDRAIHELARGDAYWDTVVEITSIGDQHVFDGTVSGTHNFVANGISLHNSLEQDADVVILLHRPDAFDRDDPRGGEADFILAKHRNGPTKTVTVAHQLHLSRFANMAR

Protein RecA = target: T3, Protein RecA (Mycobacterium tuberculosis, UniProt P9WHJ3); experiment: Fluorescence Cell-Free Homogeneous Dose Retest to Identify Inhibitors of RecA-Intein Splicing Activity. [Related pubchem assays (depositor defined):AID2097, AID2223, AID489010, AID492950]; assay type: functional
T3 sequence (P9WHJ3 whole entry): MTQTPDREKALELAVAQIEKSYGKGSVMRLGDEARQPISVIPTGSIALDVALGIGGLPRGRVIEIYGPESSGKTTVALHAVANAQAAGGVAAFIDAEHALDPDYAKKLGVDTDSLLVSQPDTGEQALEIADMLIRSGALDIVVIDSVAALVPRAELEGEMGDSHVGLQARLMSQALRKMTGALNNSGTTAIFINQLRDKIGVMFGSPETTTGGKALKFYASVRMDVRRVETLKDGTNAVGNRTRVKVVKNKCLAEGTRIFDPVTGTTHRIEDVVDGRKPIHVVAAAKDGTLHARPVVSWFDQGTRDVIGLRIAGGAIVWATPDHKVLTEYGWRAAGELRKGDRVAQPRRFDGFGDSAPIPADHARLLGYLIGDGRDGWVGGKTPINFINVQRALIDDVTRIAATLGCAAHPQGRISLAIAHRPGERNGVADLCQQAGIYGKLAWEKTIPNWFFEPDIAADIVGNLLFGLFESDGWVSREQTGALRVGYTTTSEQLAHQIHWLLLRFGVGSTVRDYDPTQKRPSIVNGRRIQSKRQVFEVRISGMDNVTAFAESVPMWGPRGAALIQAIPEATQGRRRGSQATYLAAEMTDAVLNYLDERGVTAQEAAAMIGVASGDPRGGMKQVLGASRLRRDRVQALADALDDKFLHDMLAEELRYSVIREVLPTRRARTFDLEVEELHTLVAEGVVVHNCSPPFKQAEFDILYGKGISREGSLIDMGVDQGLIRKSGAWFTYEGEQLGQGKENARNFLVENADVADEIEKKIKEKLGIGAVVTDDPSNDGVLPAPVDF

[4] = target: T4, Heat shock factor protein 1 (Mus musculus, UniProt P38532); experiment: enhancement of HSF1-driven luciferase signal – cell-based, NIH3T3, luminescence, dose retest, confirmation (AID 435004); assay type: functional;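 further: stress induced by proteasome inhibitor MG132 added 30 min after compound; luciferase reporter driven by HSF1 response element in NIH3T3 cells; actives raise luminescence as potentiators of the MG132 stress response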
T4 sequence (P38532 whole entry): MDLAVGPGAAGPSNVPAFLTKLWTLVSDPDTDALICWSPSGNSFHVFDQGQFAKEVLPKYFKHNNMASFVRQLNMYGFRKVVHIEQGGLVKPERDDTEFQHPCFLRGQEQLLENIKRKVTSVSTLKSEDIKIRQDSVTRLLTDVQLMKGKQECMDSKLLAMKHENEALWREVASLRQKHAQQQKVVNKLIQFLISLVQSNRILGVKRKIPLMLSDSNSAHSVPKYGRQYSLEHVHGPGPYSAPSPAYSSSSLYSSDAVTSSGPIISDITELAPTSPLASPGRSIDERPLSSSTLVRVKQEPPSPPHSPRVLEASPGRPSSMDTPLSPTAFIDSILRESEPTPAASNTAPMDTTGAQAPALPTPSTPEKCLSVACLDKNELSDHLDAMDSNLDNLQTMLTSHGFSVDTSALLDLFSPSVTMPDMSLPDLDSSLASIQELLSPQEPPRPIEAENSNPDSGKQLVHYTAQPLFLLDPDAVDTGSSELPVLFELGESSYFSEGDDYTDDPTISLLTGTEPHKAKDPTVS

BJ = experiment: growth inhibition of engineered Ras-driven BJ cells – cell-based, alamar blue fluorescence, cherrypicked samples, dose response (AID 2631); assay type: functional; conditions: Homo sapiens;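 further: confirmatory dose-response assay in RAS-dependent BJ fibroblasts engineered with TERT, LT and ST, with cytotoxicity read by fluorescence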

| Structure (SMILES) | IC50 [1] | AC50 [2] | AC50 [3] | EC50 (Protein RecA) | EC50 [4] | EC50 (BJ) |
| --- | --- | --- | --- | --- | --- | --- |
| O=C1c2cc(F)ccc2-n2c1nc1ccccc1c2=O | 0.433 µM (active) | 1.05 µM (active) | > 120 µM (inactive) | > 380 µM (inactive) |  |  |
| CCOC(=O)C1=C(c2ccc(OC)cc2)C(=O)c2ccccc2C1=O | 0.322 µM (active) |  | 4.41 µM (active) | 1.83 µM (active) | 52.2 µM (active) | 0.605 µM (active) |
| COCCCNC(=O)c1ccc2c3c(onc13)-c1ccccc1C2=O |  |  |  | 13 µM (active) | 3.48 µM (active) | 4.11 µM (active) |
| O=C1C=C(N(CCO)Cc2ccccc2)c2ccccc2C1=O |  | 4.78 µM (active) | > 380 µM (inconclusive) | 0.402 µM (active) |  |  |
| CCC(=O)OCCNc1cc(Sc2nccn2C)c2nonc2c1[N+](=O)[O-] |  | 7.16 µM (active) | 2.9 µM (active) | 1.37 µM (active) | 4.5 µM (active) |  |
| CCCCn1c(NC(=O)c2ccccc2Cl)c(C#N)c2nc3ccccc3nc21 | 6.15 µM (active) |  |  |  |  |  |
| CCc1ccc(OCC(=O)N/N=C2\CC(=O)c3ccccc32)cc1 |  |  | 6.09 µM (active) | 1.24 µM (active) |  |  |
| O=C1C(=O)c2ccccc2-c2ccccc21 [9,10-PHENANTHRENEQUINONE] |  |  | 6.47 µM (active) | 7.45 µM (active) |  | 2.74 µM (inconclusive) |
